The values below come from patent publication US9181294B2, “Nucleoside analogues for the treatment of a viral infection, and method for evaluating the sensitivity to said treatment” (priority 2011, dated 2015).

Series [1] has as its system Lai virus in MT2 cells, intracellular viral DNA. Kind of series: Inhibition of double-stranded proviral DNA production (Taqman real-time PCR). It is filed as cell-based, HIV-1. Particulars: 10 or 25 μM of compound, FIG. 2. As for the experimental part:
(§1) The MT2 cells were concentrated at 15×10^6/ml and incubated for 2 h with 10 or 25 μM of compound A. The Lai virus is then added at a multiplicity of infection of 0.01 for 1 h. The cells are washed and then incubated in culture medium containing 10 or 25 μM of the compound to be tested. A sample of 1×10^6 cells is taken at various times and the viral DNA is quantified by means of a Taqman real-time PCR method. The viral RNA loads are quantified in the culture medium (Cobas AmpliPrep/Cobas TaqMan (CTM) HIV-1 v2 test).
A general note: Quantitative PCR measures a nucleic acid by following its amplification.

Another series has as its system pNL4-3 G140S-Q184H. The series can be described thus: Resistance index on pNL4-3 virus modified by site-directed mutagenesis. It is filed as cell-based, HIV-1. Particulars: Table 1C; integrase-inhibitor-resistance mutant G140S-Q184H; ratio IC50 mutant / IC50 wild type. On the procedure:
(§2) The titres for a single cycle of the virus were determined in HeLa-P4 cells. The cells were infected, in duplicate, in 96-well plates, with the HIV-1 pNL-4.3 clone (equivalent to 3 ng of p24 antigen). The titres for a single cycle of the viruses were determined 48 hours after infection by quantifying the beta-galactosidase activity in P4 lysates by means of a colorimetric test (CPRG test) based on cleavage of chlorophenol red-beta-D-galactopyranoside (CPRG) by beta-galactosidase. The 50% inhibitory concentration (IC50) was determined as the concentration of compound A providing 50% inhibition of beta-galactosidase levels compared with the untreated infected cells.
(§3) Compound A according to the invention was tested on the pNL4-3 virus optionally modified by site-directed mutagenesis, comprising or not comprising (wt) the mutations located in the reverse transcriptase gene and associated with resistance to the main NRTIs used in clinical practice. Tables 1A to 1C below group together the resistance indices of compound A according to the invention on the viruses with and without mutation.
The resistance index of a mutant represents the ratio of the concentration of compound capable of inhibiting by half (IC50) the growth of the mutant virus tested, to the concentration of compound capable of inhibiting by half (IC50) the growth of the wild-type virus. […]

The test system of series [2] is Lai virus in MT2 cells, extracellular viral RNA. The series can be described thus: Inhibition of viral RNA production in culture medium (Cobas TaqMan HIV-1 v2 test). It is filed as cell-based. On the procedure: as §1
A further series has as its system pNL4-3 N155H. Type of series: cell-based, HIV-1.
Another series concerns pNL4-3 Q184H. The series can be described thus: Resistance index on pNL4-3 virus modified by site-directed mutagenesis. It is filed as cell-based, HIV-1. Particulars: Table 1C; integrase-inhibitor-resistance mutant Q184H; ratio IC50 mutant / IC50 wild type.
The next series concerns LAI viruses in MT2 cells. Kind of series: Antiviral test in MT2 cells (viral load on day 3). Type of series: cell-based, HIV-1. The following applies: Human immunodeficiency virus 1; MT2 cells infected with LAI viruses. As for the experimental part:
The MT2 cells were concentrated at 3×10^6/ml and infected with 10^7 viruses (LAI). The cells were distributed into 96-well plates (1×10^5/well) and incubated in the presence of various concentrations of compound A (in quadruplicate). The viral loads were determined on day 3 (Cobas AmpliPrep/Cobas TaqMan (CTM) HIV-1 v2 test).
Compound A was tested on MT2 cells infected with LAI viruses.

Another series can be described thus: in vitro. It is filed as cell-based. The following applies: read-out: CC50 (50% cytotoxic concentration). On the procedure: A cell viability test measuring the absorbance at 560 and 690 nm using the yellow tetrazolium […] [3-(4,5-dimethyl-2-thiazolyl)-2,5-diphenyltetrazolium bromide] reagent was carried out with the tetrabenzoyladenosine in the HeLa-CD4, Vero, FH, MT2 and SupT1 cell lines.
Using various cell types (HeLa-CD4, Vero, FH, MT2 and SupT1), the CC50 (50% cytotoxic concentration) of compound A was measured at more than 100 μM in all cases.

The test system of series [3] is HIV-1 pNL-4.3 clone (pNL4-3 wild type). The series can be described thus: Antiviral test in HeLa-P4 cells (single cycle, CPRG beta-galactosidase test). It is filed as cell-based. As for the experimental part:
HeLa-P4 cells are HeLa CD4 LTR-LacZ cells in which the expression of LacZ is induced by the trans-activating Tat protein of HIV, making it possible to precisely quantify the HIV-1 infectivity from a single replication cycle. HeLa-CD4 cells growing exponentially at a density of 1×10^4/ml are placed in 96-well plates and infected on the following day with 3 ng of HIV p24 antigen in the presence of various concentrations of compounds.
as §2
The antiviral activity of compound A according to the invention was evaluated using an amount of HIV corresponding to 3 ng of p24 antigen.
as §3
(§4) The resistance index of a mutant represents the ratio of the concentration of compound capable of inhibiting by half (IC50) the growth of the mutant virus tested, to the concentration of compound capable of inhibiting by half (IC50) the growth of the wild-type virus.

A further series concerns pNL4-3 E138K. Type of series: cell-based, HIV-1. As for the experimental part:
as §2, §3, §4
(§5) A resistance index greater than approximately 1.5 or 2 signifies that the viral strain is resistant to the treatment.

For the next series, the system named is pNL4-3 K65R. Type of series: cell-based, HIV-1. On the procedure: as §2, §3, §4, §5
A further series relates to pNL4-3 K103N. It is filed as cell-based, HIV-1. On the procedure:
as §2, §3, §4, §5

The test system of the next series is pNL4-3 T215Y. It is filed as cell-based, HIV-1. As for the experimental part:
as §2, §3, §4, §5

In series [4] the test system is pNL4-3 M184V-M41L-L210W-T215Y. Type of series: cell-based, HIV-1. As for the experimental part:
as §2, §3, §4, §5

A further series relates to pNL4-3 M41L-L210W-T215Y. Type of series: cell-based, HIV-1. As for the experimental part: as §2, §3, §4, §5
The next series has as its system pNL4-3 M184V. It is filed as cell-based, HIV-1. As for the experimental part: as §2, §3, §4, §5
A further series relates to pNL4-3 K65R-M184V. It is filed as cell-based, HIV-1. On the procedure: as §2, §3, §4, §5
[5] abbreviates: amount of HIV corresponding to 3 ng of p24 antigen.

Where two headings read alike, the source gives them in different places. Bounds are passed on as bounds.

On to `O=C(O[C@@H]1[C@H](OC(=O)c2ccccc2)[C@H](n2cnc3c(N(C(=O)c4ccccc4)C(=O)c4ccccc4)ncnc32)O[C@@H]1CO)c1ccccc1` (stereo in doubt) [compound A, N^6,N^6,O^2′,O^3′-tetrabenzoyladenosine], for which, in [1], the “appearance of the intracellular viral DNA” value was “inhibited”. Moreover, the Resistance index is given as 0.99 with pNL4-3 G140S-Q184H; 1.04 with pNL4-3 N155H; 0.88 with pNL4-3 Q184H; 1 in series [3] ({}); 0.89 with pNL4-3 E138K; 1 in the series on pNL4-3 K103N. Further, the “production of the extracellular viral RNA” value in series [2] (10 or 25 μM of compound, FIG. 3) is given as “inhibited”. Besides, the “inhibition of the viral load, comparison with AZT (zidovudine)” value in [2] (FIGS. 2 and 3) is given as “clear superiority”. The half-maximal inhibitory concentration (IC50) in the series with LAI viruses in MT2 cells is 1.6 µM; in [3] (Human immunodeficiency virus 1, HeLaP4, amount of HIV corresponding to 3 ng of p24 antigen, FIG. 1) it was 1 to 2 µM. Moreover, the CC50 in the series “in vitro” (African green monkey, Vero cells) was more than 100 µM; in the series “in vitro” (FH cells), more than 100 µM; in “in vitro” (human, HeLa-CD4 cells) it was more than 100 µM; in “in vitro” (human, MT2 cells), more than 100 µM; in the series “in vitro” (human, SupT1 cells) it was more than 100 µM. For the same compound, the “Viral production (10 μM of compound)” value in series [3] (setting [5]) is reported as 0%. Besides, the “Resistance index (fold change)” value is recorded as 1 fold change in [3] ({}); 0.92 fold change in the series with pNL4-3 K65R; 0.41 fold change with pNL4-3 T215Y; 0.58 fold change in [4]; 0.38 fold change in the series on pNL4-3 M41L-L210W-T215Y; 0.99 fold change with pNL4-3 M184V. In the series with pNL4-3 K65R-M184V, the “Resistance index (fold change)” value stood at 1.07 fold change.
`O=C(Nc1ncnc2c1ncn2[C@@H]1O[C@H](CO)[C@H](OC(=O)c2ccccc2)[C@@H]1OC(=O)c1ccccc1)c1ccccc1` [reference compound]: in [3] (setting [5]), the “Viral production (10 μM of compound)” value was 109%.

One may read the IC50 as the concentration that gives 50% inhibition.
